Converted amounts (≈) assume the structure as drawn.
System: Malassezia furfur strain DSM6171
Test: MIC value measurement by agar dilution method against Malassezia furfur
Assay type: cell-based, Malassezia furfur (synonym: Pityrosporum ovale)
Settings: for factor by which activity is greater than that of 1,2-octanediol: ratio of MIC values versus 1,2-octanediol (MIC 225 ppm); for factor by which activity is greater than that of 1,2-octanediol / MIC: Malassezia furfur; for MIC: DSM6171, 72 h
Description: The antimicrobial action of the alkane-1,2-diols against Malassezia furfur was determined by means of the agar dilution method in accordance with DIN 58 940/ICS and DIN 58 944/ICS. Malassezia furfur strain DSM6171 was used as the test organism. Petri dishes having a diameter of 9 cm and containing 8.7 ml of freshly prepared Mueller-Hinton agar (Merck, art. 1.05437) kept liquid at 50° C. and containing 3% Tween 80 (Merck, art. 8.2217) were used. In order to prepare the test concentrations, ethanolic stock solutions of the alkane-1,2-diol samples were diluted with 96% ethanol until the following final test concentrations of the alkane-1,2-diols in the Mueller-Hinton agar were present: 25,000 ppm, 12,500 ppm, 6300 ppm, 3600 ppm, 1800 ppm, 1100 ppm, 900 ppm, 450 ppm, 225 ppm, 112 ppm, 56 ppm, 28 ppm, 14 ppm, 7 ppm, 4 ppm. 2 agar plates were cast per test concentration and nutrient medium. After solidification and drying (about 1 hour at 37° C.), the test plates were inoculated punctually with in each case 1 μl of the Malassezia furfur (DSM 6171-2.8×10^7 KBE/ml) test organism suspensions. The inoculated plates were subsequently incubated for 72 hours at 30° C. and then evaluated. The lowest active ingredient concentration at which, macroscopically, no growth is present was regarded as the MIC (minimum inhibitory concentration). The MIC values of the alkane-1,2-diols listed in Table 1 were determined in accordance with the general test conditions.

[1] = agar dilution, Mueller-Hinton agar with 3% Tween 80, 72 hours at 30° C., lowest concentration with no macroscopic growth

With `CCCCCCCCC(O)CO` (stereo not shown) [1,2-Decanediol] as the molecule, how does the “factor by which activity is greater than that of 1,2-octanediol” value read?
Its value is “about 8”.

Which “factor by which activity is greater than that of 1,2-octanediol” value does the source give for `CCCCCCCCCCC(O)CO` (stereo not shown) [1,2-Dodecanediol] here?
Its value is “about 16”.

`CCCCCCCCCCCCCCC(O)CO` (stereo not shown) [1,2-Hexadecanediol] was tested. Which MIC [1] did it give?
Its MIC is 1100 µg/mL (≈ 4.26 mM).

Which MIC [1] does the source give for `CCCCC(O)CO` (stereo not shown) [1,2-Hexanediol] here?
The MIC was 12500 µg/mL (≈ 106 mM).

`CCCCCCCCCCCCCCCCC(O)CO` (stereo not shown) [1,2-Octadecanediol] was tested. Which MIC [1] did it give?
Its MIC is over 1100 µg/mL.

What about the MIC value [1] of the same molecule?
Its MIC value is over 1100 ppm.

Which MIC [1] does the source give for `CCCCCCC(O)CO` (stereo not shown) [1,2-Octanediol] here?
Its MIC is 225 µg/mL (≈ 1.54 mM).

`CCCC(O)CO` (stereo not shown) [1,2-Pentanediol] was tested. Which MIC [1] did it give?
Its MIC is 25000 µg/mL (≈ 240 mM).

What does the source list for `CCCCCCCCCCCCC(O)CO` (stereo not shown) [1,2-Tetradecanediol]?
MIC [1]: < 7 µg/mL; factor by which activity is greater than that of 1,2-octanediol: at least 32
